The values below come from DBAASP.

Test systems include Acinetobacter baumannii; Escherichia coli UB1005; Klebsiella pneumoniae; Staphylococcus aureus; Escherichia coli.
Assay in all cases: ≥ marks a high value that may be exact or a test limit, other limits are often not marked, values filed in µg/mL are converted to µM
Assay [1] deals with Staphylococcus aureus ATCC 29213.
Assay [2] deals with Pseudomonas aeruginosa ATCC 27853.
The test system of assay [3] is Enterococcus faecalis ATCC 29212.
Assay [4] concerns Escherichia coli ATCC 25922.
The test system of assay [5] is Bacillus subtilis ATCC 23857.
Assay [6] relates to Candida albicans ATCC 10231.
The subject of assay [7] is Staphylococcus aureus USA 300.
The test system of assay [8] is Pseudomonas aeruginosa PAO1.
The subject of assay [9] is Klebsiella pneumoniae ATCC 13883.
Assay [10] concerns Klebsiella pneumoniae ATCC 700603.
Assay [11] has as its system Staphylococcus aureus ATCC 25923.
Assay [12] concerns Pseudomonas aeruginosa ATCC 9027.
Assay [13] has as its system Salmonella enterica subsp. enterica serovar Typhimurium C77-31.
Assay [14] has as its system Staphylococcus epidermidis ATCC 12228.
Assay [15] deals with Acinetobacter baumannii ATCC 19606.
Assay [16] deals with Salmonella enterica subsp. enterica serovar Typhimurium ATCC 14028.
Assay [17] relates to Staphylococcus aureus ATCC 33591.

Converted amounts (≈) assume the structure as drawn. “And” between values parts separate entries of the source, which are not always exact repeats. Equal entries are not always repeated.

Turning to `CC(C)C[C@H](NC(=O)[C@H](CC(C)C)NC(=O)[C@H](CCCN=C(N)N)NC(=O)[C@H](CCCCN)NC(=O)[C@H](CCCN=C(N)N)NC(=O)[C@H](CC(C)C)NC(=O)[C@H](CCCCN)NC(=O)[C@H](CCCN=C(N)N)NC(=O)[C@H](CC(C)C)NC(=O)[C@@H](N)CS)C(=O)N[C@@H](CS)C(=O)O` [CLRKLRKRLLC], the MIC in assay [1] was over 22.8 µM; in [2], over 22.8 µM; in assay [3], over 22.8 µM; in the assay on Acinetobacter baumannii it was 22.8 µM (≈ 32 µg/mL); in assay [4], 17.1 µM (≈ 24 µg/mL).
As for `NC(=O)[C@H](CCCN=C(N)N)NC(=O)[C@H](CCCN=C(N)N)NC(=O)[C@H](Cc1ccccc1)NC(=O)[C@H](Cc1ccccc1)NC(=O)[C@H](CCCN=C(N)N)NC(=O)[C@H](CCCN=C(N)N)NC(=O)[C@H](Cc1ccccc1)NC(=O)[C@@H](N)Cc1ccccc1` [FFRRFFRR], the MIC in [5] was at least 102 µM; in assay [6], over 406 µM.
As to `CC(C)C[C@H](NC(=O)[C@H](CC(C)C)NC(=O)[C@H](CCCCN)NC(=O)[C@H](CC(C)C)NC(=O)CNC(=O)[C@H](CC(C)C)NC(=O)[C@H](CO)NC(=O)[C@H](CC(C)C)NC(=O)[C@H](CC(C)C)NC(=O)[C@H](CO)NC(=O)[C@H](CC(C)C)NC(=O)[C@H](CC(C)C)NC(=O)CN)C(N)=O` [GLLSLLSLGLKLL], the MIC in assay [7] is 0.8 µM (≈ 1.07 µg/mL); in assay [8], over 25 µM; in assay [9], 25 µM (≈ 33.5 µg/mL); in [4], over 25 µM.
Consider `CC(C)C[C@H](NC(=O)CN)C(=O)N[C@@H](CC(C)C)C(=O)N[C@@H](CO)C(=O)N[C@@H](CC(C)C)C(=O)N[C@@H](CC(C)C)C(=O)N[C@@H](CO)C(=O)N[C@@H](CC(C)C)C(=O)N[C@@H](CC(C)C)C(=O)NCC(=O)N[C@@H](CCCCN)C(=O)N[C@@H](CC(C)C)C(=O)N[C@@H](C)C(N)=O` [GLLSLLSLLGKLA], for which the MIC in assay [7] is 1.56 µM (≈ 2.02 µg/mL); in assay [8] it was over 25 µM; in [9], 17.7 µM (≈ 22.9 µg/mL); in assay [4] it was 2.16 µM (≈ 2.8 µg/mL).
`CC[C@H](C)[C@H](N)C(=O)N[C@H](C(=O)N[C@H](C(=O)N[C@@H](CCCCN)C(=O)N[C@@H](CO)C(=O)N[C@@H](CC(C)C)C(=O)NCC(=O)N[C@@H](CCCCN)C(=O)N[C@@H](Cc1ccccc1)C(=O)N[C@@H](CC(C)C)C(=O)N[C@@H](CCCCN)C(=O)N[C@@H](CC(N)=O)C(=O)N[C@H](C(=O)NCC(=O)NCC(=O)N[C@@H](Cc1ccccc1)C(=O)N[C@@H](C)C(=O)NCC(=O)O)C(C)C)[C@@H](C)CC)C(C)C` [IVIKSLGKFLKNVGGFAG]: the MIC in assay [10] was over 64 µM; in [11] it was over 64 µM; in [12], over 64 µM; in the assay on Acinetobacter baumannii, at least 64 µM; in [4] it was over 64 µM.
Turning to `CC(C)C[C@H](NC(=O)[C@H](CCCN=C(N)N)NC(=O)[C@H](CC(C)C)NC(=O)[C@H](CCCN=C(N)N)NC(=O)[C@@H](NC(=O)[C@H](CCCCN)NC(=O)[C@H](CC(C)C)NC(=O)[C@H](CCCN=C(N)N)NC(=O)[C@H](CC(C)C)NC(=O)[C@H](CCCN=C(N)N)NC(=O)[C@@H](N)CC(C)C)[C@@H](C)O)C(=O)N[C@@H](CCCCN)C(N)=O` [LRLRLKTRLRLK], the MIC was 4 µM (≈ 6.26 µg/mL) in the assay on Escherichia coli UB1005; 32 µM (≈ 50.1 µg/mL) in assay [1]; 16 µM (≈ 25 µg/mL) in assay [13]; 64 µM (≈ 100 µg/mL) in [14]; 32 µM (≈ 50.1 µg/mL) in assay [11]; 4 µM (≈ 6.26 µg/mL) in assay [4].
Turning to `CC(C)C[C@H](NC(=O)[C@H](CCCN=C(N)N)NC(=O)[C@H](CC(N)=O)NC(=O)[C@H](C)NC(=O)[C@H](CCCN=C(N)N)NC(=O)[C@H](CC(C)C)NC(=O)[C@H](Cc1c[nH]c2ccccc12)NC(=O)[C@H](CC(C)C)NC(=O)[C@H](CCCN=C(N)N)NC(=O)[C@H](CCCN=C(N)N)NC(=O)[C@@H](N)CC(C)C)C(N)=O` [LRRLWLRANRL], the MIC in assay [1] is 128 µM (≈ 188 µg/mL); in assay [13], at least 128 µM; in assay [14], over 128 µM; in assay [2] it was over 128 µM; in assay [3], over 128 µM; in assay [4], 128 µM (≈ 188 µg/mL).
`CC[C@H](C)[C@H](NC(=O)[C@H](CCCN=C(N)N)NC(=O)[C@H](CCCN=C(N)N)NC(=O)[C@H](CC(C)C)NC(=O)[C@H](CCCN=C(N)N)NC(=O)[C@H](Cc1c[nH]c2ccccc12)NC(=O)[C@H](CCCN=C(N)N)NC(=O)[C@@H](NC(=O)[C@H](CCCN=C(N)N)NC(=O)[C@H](Cc1c[nH]c2ccccc12)NC(=O)[C@H](CCCN=C(N)N)NC(=O)[C@H](CC(C)C)NC(=O)[C@H](CCCN=C(N)N)NC(=O)[C@H](CCCN=C(N)N)NC(=O)[C@H](Cc1ccccc1)NC(=O)[C@@H](N)CCCN=C(N)N)[C@@H](C)O)C(N)=O` [RFRRLRWRTRWRLRRI]: the minimum inhibitory concentration (MIC) is 2 µM (≈ 4.77 µg/mL) against Escherichia coli UB1005; 4 µM and 8 µM in assay [1]; 4 µM (≈ 9.53 µg/mL) in [13]; 4 µM (≈ 9.53 µg/mL) in [14]; 2 µM (≈ 4.77 µg/mL) in assay [3]; 4 µM and 8 µM in [4].
Take `CC(C)C[C@H](NC(=O)[C@H](CCCN=C(N)N)NC(=O)[C@H](CCCN=C(N)N)NC(=O)[C@H](C)NC(=O)[C@H](Cc1c[nH]c2ccccc12)NC(=O)CNC(=O)[C@H](CCCN=C(N)N)NC(=O)[C@@H](N)CCCN=C(N)N)C(=O)N[C@@H](Cc1ccccc1)C(=O)N[C@@H](Cc1ccccc1)C(=O)N[C@@H](C)C(=O)N[C@@H](Cc1ccc(O)cc1)C(=O)NCC(=O)N[C@@H](CCCN=C(N)N)C(=O)N[C@@H](CCCN=C(N)N)C(N)=O` [RRGWARRLFFAYGRR]: the MIC against Klebsiella pneumoniae is 1.2 µM (≈ 2.36 µg/mL); in assay [9] it was 5.4 µM and 8.6 µM; in assay [11], over 30 µM; in the assay on Acinetobacter baumannii, 2.6 µM (≈ 5.12 µg/mL); in assay [15] it was 1.7 µM and 1.5 µM; in assay [16] it was 1.5 µM and 2.2 µM.
On to `CC(C)C[C@H](NC(=O)[C@H](CCCN=C(N)N)NC(=O)[C@H](CCCCN)NC(=O)[C@H](CCCN=C(N)N)NC(=O)[C@@H](NC(=O)[C@H](Cc1c[nH]c2ccccc12)NC(=O)[C@H](CCCCN)NC(=O)[C@H](CCCN=C(N)N)NC(=O)[C@H](CC(C)C)NC(=O)[C@H](Cc1c[nH]c2ccccc12)NC(=O)[C@@H](N)CCCN=C(N)N)[C@@H](C)O)C(=O)N[C@@H](CCCCN)C(N)=O` [RWLRKWTRKRLK], for which the MIC against Escherichia coli UB1005 is 16 µM (≈ 27.6 µg/mL); in assay [1], 64 µM (≈ 110 µg/mL); in assay [13], at least 64 µM; in assay [14] it was 16 µM (≈ 27.6 µg/mL); in assay [11], 32 µM (≈ 55.2 µg/mL); in [4], 16 µM (≈ 27.6 µg/mL).
For the compound `CC(C)C[C@H](NC(=O)[C@@H]1CCCN1C(=O)[C@H](CCCN=C(N)N)NC(=O)[C@H](Cc1ccc(O)cc1)NC(=O)[C@@H](NC(=O)[C@@H]1CCCN1C(=O)[C@H](CCCN=C(N)N)NC(=O)[C@H](Cc1ccc(O)cc1)NC(=O)[C@@H]1CCCN1C(=O)[C@@H]1CCCN1C(=O)[C@@H]1CCCN1C(=O)[C@H](CCCN=C(N)N)NC(=O)[C@H](Cc1ccc(O)cc1)NC(=O)[C@@H](NC(=O)[C@H](CC(N)=O)NC(=O)[C@@H](N)CO)C(C)C)C(C)C)C(=O)N[C@@H](CCCN=C(N)N)C(=O)N[C@@H](CCCN=C(N)N)C(=O)N1CCC[C@H]1C(=O)NCC(=O)N[C@@H](Cc1ccc(O)cc1)C(=O)N[C@@H](CCCN=C(N)N)C(=O)N1CCC[C@H]1C(N)=O` [SNVYRPPPYRPVYRPLRRPGYRP], the MIC in assay [1] was 2 µM (≈ 5.71 µg/mL); in the assay with Staphylococcus aureus it was 32 µM (≈ 91.4 µg/mL); in the assay with Acinetobacter baumannii, 2 µM (≈ 5.71 µg/mL); in [15] it was 2 µM (≈ 5.71 µg/mL); in the assay on Escherichia coli, 2 µM (≈ 5.71 µg/mL); in assay [4], 1 µM (≈ 2.86 µg/mL).
Take `C[C@@H](O)[C@H](NC(=O)[C@H](CCCN=C(N)N)NC(=O)[C@H](CCCN=C(N)N)NC(=O)[C@H](CCCN=C(N)N)NC(=O)[C@@H]1CCCN1C(=O)[C@@H](N)CO)C(=O)N1CCC[C@H]1C(=O)N[C@@H](CO)C(=O)N1CCC[C@H]1C(=O)N[C@@H](CCCN=C(N)N)C(=O)N[C@@H](CCCN=C(N)N)C(=O)N[C@@H](CCCN=C(N)N)C(=O)N[C@@H](CCCN=C(N)N)C(=O)N[C@@H](CO)C(=O)N[C@@H](CCC(N)=O)C(=O)N[C@@H](CO)C(=O)N1CCC[C@H]1C(=O)N[C@@H](CCCN=C(N)N)C(=O)N[C@@H](CCCN=C(N)N)C(=O)N[C@@H](CCCN=C(N)N)C(N)=O` [SPRRRTPSPRRRRSQSPRRR]: the MIC in assay [2] is 100 µM (≈ 254 µg/mL); in assay [11], over 100 µM; in [17], at least 100 µM; in [4], 25 µM (≈ 63.6 µg/mL).
